Source: patent US11448563B2, “Force measurement method, force measurement device, force measurement system, force measurement program, and recording medium” (Tohoku University, priority 2017, dated 2022)

Test system: motor proteins
Assay: Frequency distribution of the fluctuation value χ of cargo transport, measured with the force measurement device after adding Ciliobrevin to cells
Format: cell-based
Settings: melanocytes; for number of clusters into which the frequency distribution of the fluctuation value χ is classified: four clusters without Ciliobrevin
Experimental: The dish after stain was placed on a heating plate (CU-201, Live Cell Instrument), and the stained melanin vesicles in melanocytes were observed under a dark-field microscope (IX71, Olympus) while the temperature was maintained at 37° C. A video was captured using an EMCCD camera (LucaS (Andor)) with a 100× objective lens (UPlanFL 100x/1.3, Plympus) at 98 frames per second. Time course data of the position of the center of gravity of melanin vesicles was calculated from the video using ImageJ (Rasband, 1997).
FIG. 15A, FIG. 15B and FIG. 15C are diagrams showing specific results showing that the fact that the frequency distribution of the fluctuation value χ changes according to addition of Ciliobrevin which is a reagent that inhibits a function of motor proteins into melanocytes is clear from measurement of χ using the force measurement device 1 of the embodiment.

For Ciliobrevin, the “change in the number of clusters of the fluctuation value χ with the amount of Ciliobrevin added” value (comparison of 0, 20 and 40 μM (FIG. 15A-15C)) was “number of clusters decreases as the amount of Ciliobrevin added increases”, the “number of clusters into which the frequency distribution of the fluctuation value χ is classified” value (concentration of Ciliobrevin in the cell culture medium 20 μM (FIG. 15B)) was “two clusters” and the “number of clusters into which the frequency distribution of the fluctuation value χ is classified” value (concentration of Ciliobrevin in the cell culture medium 40 μM (FIG. 15C)) was “one cluster”.
